Series [1] can be described thus: plasma levels of indoprofen in mice after oral gavage (HPLC-UV). In kind it is in vivo. The protocol: Plasma levels of indoprofen are determined in adult mice (22-25 g.) following oral gavage of either pure drug or microencapsulated drug. Drugs are administered at 1% of the body weight. Each treatment group in a single experiment contains four animals and the data is pooled for evaluation. Animals are sacrificed by decapitation. Blood from each treatment group is collected and pooled in heparinized tubes. Plasma is collected and frozen for assay of indoprofen concentration. Plasma indoprofen concentration is determined by high pressure liquid chromatography fitted with a UV detector; concentration is determined at max. 284 nm.
Plasma Level (μg/ml) of Indoprofen in Mice,
Administered Orally as a Suspension*
*Aqueous suspension containing 0.5% methylcellulose and 0.06% surface
^a The apparent rate of elimination, Ke is calculated using a on
compartment open model system as described by J. G. Wagner
Biopharmaceutics and Relevant Pharmacokinetics, page 180, Hamilton Press

Series [2] can be described thus: clinical analgesic/anti-inflammatory efficacy and side effects in man. It counts as in vivo. The protocol: The analgesic dose for indoprofen in man is low in comparison to the anti-inflammatory dose, i.e., in the order of 100 to 600 mg. per day.
However, the dose necessary for indoprofen to exert an anti-inflammatory activity is higher than the analgesic dose, i.e., in the order of 800 to 1200 mg. per day. […] At this dose gastrointestinal ulceration and other side effects are […].

For series [3] the following is noted: acidic pH of the stomach, unionized; cited from earlier work.
The conditions of series [4]: human, in vivo.
For series [5] the following is noted: humans; cited from earlier work.
For series [6] the following is noted: in vivo; cited from earlier work.

Each structure is given as a SMILES string. “Also recorded” adds a separate entry of the source.

The term half-life denotes how long it takes for the measured level to halve. Higher therefore signals slow decline. Take `CC(C(=O)O)c1ccc(N2Cc3ccccc3C2=O)cc1` (stereo not drawn) [indoprofen, alpha-[4-(1-oxo-2-isoindolinyl)-phenyl]propionic acid]: the half-life in series [1] (mouse, plasma, oral suspension) was 5.4 h. Besides, the concentration at 2 h in series [1] (mouse, plasma, oral suspension, 2 hours, mean and standard error, read-out: Plasma Level of Indoprofen) was found to be 2490 ± 450 ng/mL. Moreover, the concentration at 4 h in series [1] (mouse, plasma, oral suspension, 4 hours, mean and standard error, read-out: Plasma Level of Indoprofen) was 1620 ± 150 ng/mL. In addition, the concentration at 8 h in series [1] (mouse, plasma, oral suspension, 8 hours, mean and standard error, read-out: Plasma Level of Indoprofen) was 890 ± 240 ng/mL. The concentration at 16 h in series [1] (mouse, plasma, oral suspension, 16 hours, mean and standard error, read-out: Plasma Level of Indoprofen) was 490 ± 170 ng/mL. In addition, in series [1] (mouse, plasma, oral suspension, 32 hours, mean and standard error, read-out: Plasma Level of Indoprofen), the concentration at 32 h was found to be 430 ng/mL. For the same compound, in series [1] (mouse, plasma, oral suspension, one compartment open model, read-out: Ke, apparent rate of elimination (converted)), the k el was 3.54e-05 s⁻¹. In addition, in series [1] (mouse, plasma, oral, 1% of the body weight, read-out: area under the plasma curve), the AUC turned out to be 24500 ng·h/mL. In addition, the Cmax in series [1] (mouse, plasma, oral, 1% of the body weight, read-out: plasma peak height) is 2500 ng/mL. In addition, the “bioavailability, pure drug versus microencapsulated form” value in series [1] (oral) is “bioequivalent; also recorded: equivalent bioavailability”. For the same compound, the “plasma peak height, pure drug relative to microencapsulated drug” value in series [1] (oral, listed as pure drug) is listed as “two times that of microencapsulated form; also recorded: two times that of the microencapsulated drug”. For the same compound, in series [2] (clinical studies, above 800 mg., especially 1200 mg., per day), the “safety in prolonged therapy” value is on record as “has not been shown to be safe for prolonged therapy”. In addition, the safety classification result in series [2] (clinical studies, up to 800 mg. per day) is recorded as “safe dose”. Further, in series [2] (man, 800 mg. per day), the effectiveness in osteoarthritis entry was “effective in the treatment of osteoarthritis”; the “gastrointestinal ulceration and other side effects” value is “minimal”. For the same compound, in series [2] (man, 1200 mg. per day), the “effectiveness in rheumatoid arthritis” value is reported as “effective in the treatment of rheumatoid arthritis”; the “gastrointestinal ulceration and other side effects” value was “the incidence of gastrointestinal ulceration and other side effects are recognized”. In series [2] (man, 100 to 600 mg. per day), the analgesic effect result is “maximum analgesic effect” and the side effects result is on record as “minimal or negligible side effects”. For the same compound, the solubility result in series [3] was “poorly soluble”. In addition, the “plasma peak height and bioavailability (total area under the plasma curve) as dose is increased” value in series [4] is listed as “increases in a linear fashion”. Besides, the “plasma half-life (t 1/2)” value in series [5] is 2.1 to 5.4 h. Moreover, in series [6], the “anti-inflammatory and analgesic properties” value was “excellent anti-inflammatory and analgesic properties”.

These data come from patent US4316884A, “Sustained release pharmaceutical formulation” (Adria Laboratories, Inc., priority 1980, dated 1982).
